Reference: patent US8802597B2, “Herbicidal pyrimidines” (E I du Pont de Nemours and Company, priority 2003, dated 2014)
Where two headings read alike, the source gives them in different places.

Key:
Format in all cases: in vivo
[1] = tested on: Surinam grass (Brachiaria decumbens); assay: Test B pre/postemergence; conditions: Urochloa decumbens; for pest or weed control at 62 g/ha: 62 g ai/ha; for pest or weed control at 250 g/ha: 250 g ai/ha
In short: (§1)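 Test chemicals in a non-phytotoxic solvent mixture with surfactant were applied preemergence to planted seeds and postemergence to plants 2 to 18 cm tall (1- to 4-leaf stage). After 13 to 15 days in a greenhouse, injury was visually rated against untreated controls on a 0 to 100 scale.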

[2] = tested on: barnyardgrass (Echinochloa crus-galli); assay: Test B pre/postemergence; conditions: Echinochloa crus-galli; for pest or weed control at 62 g/ha: 62 g ai/ha; for pest or weed control at 250 g/ha: 250 g ai/ha
In short: as §1

[3] = tested on: cocklebur (Xanthium strumarium); assay: Test B pre/postemergence; conditions: Xanthium strumarium; for pest or weed control at 62 g/ha: 62 g ai/ha; for pest or weed control at 250 g/ha: 250 g ai/ha
In short: as §1

corn (Zea mays) = assay: Test B pre/postemergence; conditions: Zea mays; for Corn plant response rating (crop injury, 0 = no effect, 100 = complete kill) at 250 g/ha: 250 g ai/ha
In short: as §1

[4] = tested on: crabgrass (Digitaria sanguinalis); assay: Test B pre/postemergence; conditions: Digitaria sanguinalis; for pest or weed control at 62 g/ha: 62 g ai/ha; for pest or weed control at 250 g/ha: 250 g ai/ha
In short: as §1

[5] = tested on: giant foxtail (Setaria faberii); assay: Test B pre/postemergence; conditions: Setaria faberi; for pest or weed control at 62 g/ha: 62 g ai/ha; for pest or weed control at 250 g/ha: 250 g ai/ha
In short: as §1

[6] = tested on: lambsquarters (Chenopodium album); assay: Test B pre/postemergence; conditions: Chenopodium album; for pest or weed control at 62 g/ha: 62 g ai/ha; for pest or weed control at 250 g/ha: 250 g ai/ha
In short: as §1

[7] = tested on: morningglory (Ipomoea coccinea); assay: Test B pre/postemergence; conditions: Ipomoea; for pest or weed control at 62 g/ha: 62 g ai/ha; for pest or weed control at 250 g/ha: 250 g ai/ha
In short: as §1

[8] = tested on: pigweed (Amaranthus retroflexus); assay: Test B pre/postemergence; conditions: Amaranthus retroflexus; for pest or weed control at 62 g/ha: 62 g ai/ha; for pest or weed control at 250 g/ha: 250 g ai/ha
In short: as §1

[9] = tested on: velvetleaf (Abutilon theophrasti); assay: Test B pre/postemergence; conditions: Abutilon theophrasti; for pest or weed control at 62 g/ha: 62 g ai/ha; for pest or weed control at 250 g/ha: 250 g ai/ha
In short: as §1

[10] = tested on: wheat (Triticum aestivum); assay: Test B pre/postemergence; conditions: Triticum aestivum; for plant injury at 62 g/ha: 62 g ai/ha; for plant injury at 250 g/ha: 250 g ai/ha
In short: as §1

[11] = tested on: blackgrass (Alopecurus myosuroides); assay: Test B postemergence; conditions: Alopecurus myosuroides, post-emergence
In short: as §1

wild oat (Avena fatua) = assay: Test B postemergence; conditions: Avena fatua, post-emergence
In short: as §1

[12] = tested on: barnyardgrass (Echinochloa crus-galli); assay: Test B flooded paddy test; conditions: Echinochloa crus-galli, Flood, 1000 g ai/ha; scale 0 (no effect) to 100 (complete control); read-out: Plant response rating, Barnyardgrass
In short: (§2)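 Plants were grown to the 2-leaf stage before treatment, then kept in a greenhouse for 13 to 15 days. Injury was rated visually against untreated controls on a 0 to 100 scale, where 0 is no effect and 100 is complete control.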

[13] = tested on: duck salad (Heteranthera limosa); assay: Test B flooded paddy test; conditions: Heteranthera limosa, Flood, 1000 g ai/ha; scale 0 to 100; read-out: Plant response rating, Ducksalad
In short: as §2

rice (Oryza sativa) = assay: Test B flooded paddy test; conditions: Oryza sativa, Flood, 1000 g ai/ha; scale 0 to 100; read-out: Plant response rating, Rice
In short: as §2

[14] = tested on: umbrella sedge (Cyperus difformis); assay: Test B flooded paddy test; conditions: Cyperus difformis, Flood, 1000 g ai/ha; scale 0 to 100; read-out: Plant response rating, Sedge, Umbrella
In short: as §2

[15] = pre-emergence, Preemergence, scale 0 to 100 (0 no effect, 100 complete control), read-out: Plant response rating, Barnyardgrass
[16] = pre-emergence, Preemergence, scale 0 to 100 (0 no effect, 100 complete control), read-out: Plant response rating, Wheat

## CCOC(=O)c1nc(C2CC2)nc(N)c1Cl [Compound 4, ethyl 6-amino-5-chloro-2-cyclopropyl-4-pyrimidinecarboxylate]
[1]; post-emergence, Postemergence, scale 0 to 100 (0 no effect, 100 complete control), read-out: Surinam Grass plant response rating
  pest or weed control at 62 g/ha: 90%
[1]; post-emergence, Postemergence, scale 0 to 100, read-out: Plant response rating, Surinam Grass
  pest or weed control at 250 g/ha: 90%
[1]; pre-emergence, Preemergence, scale 0 to 100 (0 no effect, 100 complete control), read-out: Plant response rating, Surinam Grass
  pest or weed control at 250 g/ha: 90%
[1]; pre-emergence, Preemergence, scale 0 to 100, 0 no effect, 100 complete control, read-out: Plant response rating, Surinam Grass
  pest or weed control at 62 g/ha: 40%
[2]; post-emergence, Postemergence, scale 0 to 100 (0 no effect, 100 complete control), read-out: Barnyardgrass plant response rating
  pest or weed control at 62 g/ha: 70%
[2]; post-emergence, Postemergence, scale 0 to 100, read-out: Plant response rating, Barnyardgrass
  pest or weed control at 250 g/ha: 90%
[2]; [15]
  pest or weed control at 62 g/ha: 30%
  pest or weed control at 250 g/ha: 90%
[3]; post-emergence, Postemergence, scale 0 to 100 (0 no effect, 100 complete control), read-out: Cocklebur plant response rating
  pest or weed control at 62 g/ha: 90%
[3]; post-emergence, Postemergence, scale 0 to 100, read-out: Plant response rating, Cocklebur
  pest or weed control at 250 g/ha: 100%
[3]; pre-emergence, Preemergence, scale 0 to 100, 0 no effect, 100 complete control, read-out: Plant response rating, Cocklebur
  pest or weed control at 62 g/ha: 80%
[3]; pre-emergence, Preemergence, scale 0 to 100 (0 no effect, 100 complete control), read-out: Plant response rating, Cocklebur
  pest or weed control at 250 g/ha: 100%
Corn (Zea mays); post-emergence, Postemergence, 62 g ai/ha, scale 0 to 100 (0 no effect, 100 complete control), read-out: Corn plant response rating
  plant injury at 62 g/ha: 50%
Corn (Zea mays); post-emergence, Postemergence, scale 0 to 100
  Corn plant response rating (crop injury, 0 = no effect, 100 = complete kill) at 250 g/ha: 90%
Corn (Zea mays); pre-emergence, Preemergence, 62 g ai/ha, scale 0 to 100, 0 no effect, 100 complete control
  Corn plant response rating (crop injury, 0 = no effect, 100 = complete kill) at 62 g/ha: 0%
Corn (Zea mays); pre-emergence, Preemergence, scale 0 to 100 (0 no effect, 100 complete control)
  Corn plant response rating (crop injury, 0 = no effect, 100 = complete kill) at 250 g/ha: 80%
[4]; post-emergence, Postemergence, scale 0 to 100 (0 no effect, 100 complete control), read-out: Crabgrass plant response rating
  pest or weed control at 62 g/ha: 80%
[4]; post-emergence, Postemergence, scale 0 to 100, read-out: Plant response rating, Crabgrass
  pest or weed control at 250 g/ha: 90%
[4]; pre-emergence, Preemergence, scale 0 to 100, 0 no effect, 100 complete control, read-out: Plant response rating, Crabgrass
  pest or weed control at 62 g/ha: 70%
[4]; pre-emergence, Preemergence, scale 0 to 100 (0 no effect, 100 complete control), read-out: Plant response rating, Crabgrass
  pest or weed control at 250 g/ha: 90%
[5]; post-emergence, Postemergence, scale 0 to 100 (0 no effect, 100 complete control), read-out: Foxtail, Giant plant response rating
  pest or weed control at 62 g/ha: 80%
[5]; post-emergence, Postemergence, scale 0 to 100, read-out: Plant response rating, Foxtail, Giant
  pest or weed control at 250 g/ha: 90%
[5]; pre-emergence, Preemergence, scale 0 to 100 (0 no effect, 100 complete control), read-out: Plant response rating, Foxtail, Giant
  pest or weed control at 250 g/ha: 80%
[5]; pre-emergence, Preemergence, scale 0 to 100, 0 no effect, 100 complete control, read-out: Plant response rating, Foxtail, Giant
  pest or weed control at 62 g/ha: 10%
[6]; post-emergence, Postemergence, scale 0 to 100 (0 no effect, 100 complete control), read-out: Lambsquarters plant response rating
  pest or weed control at 62 g/ha: 100%
[6]; post-emergence, Postemergence, scale 0 to 100, read-out: Plant response rating, Lambsquarters
  pest or weed control at 250 g/ha: 100%
[6]; pre-emergence, Preemergence, scale 0 to 100, 0 no effect, 100 complete control, read-out: Plant response rating, Lambsquarters
  pest or weed control at 62 g/ha: 90%
[6]; pre-emergence, Preemergence, scale 0 to 100 (0 no effect, 100 complete control), read-out: Plant response rating, Lambsquarters
  pest or weed control at 250 g/ha: 100%
[7]; post-emergence, Postemergence, scale 0 to 100 (0 no effect, 100 complete control), read-out: Morningglory plant response rating
  pest or weed control at 62 g/ha: 90%
[7]; post-emergence, Postemergence, scale 0 to 100, read-out: Plant response rating, Morningglory
  pest or weed control at 250 g/ha: 100%
[7]; pre-emergence, Preemergence, scale 0 to 100, 0 no effect, 100 complete control, read-out: Plant response rating, Morningglory
  pest or weed control at 62 g/ha: 60%
[7]; pre-emergence, Preemergence, scale 0 to 100 (0 no effect, 100 complete control), read-out: Plant response rating, Morningglory
  pest or weed control at 250 g/ha: 100%
[8]; post-emergence, Postemergence, scale 0 to 100 (0 no effect, 100 complete control), read-out: Pigweed plant response rating
  pest or weed control at 62 g/ha: 100%
[8]; post-emergence, Postemergence, scale 0 to 100, read-out: Plant response rating, Pigweed
  pest or weed control at 250 g/ha: 100%
[8]; pre-emergence, Preemergence, scale 0 to 100, 0 no effect, 100 complete control, read-out: Plant response rating, Pigweed
  pest or weed control at 62 g/ha: 90%
[8]; pre-emergence, Preemergence, scale 0 to 100 (0 no effect, 100 complete control), read-out: Plant response rating, Pigweed
  pest or weed control at 250 g/ha: 100%
[9]; post-emergence, Postemergence, scale 0 to 100 (0 no effect, 100 complete control), read-out: Velvetleaf plant response rating
  pest or weed control at 62 g/ha: 70%
[9]; post-emergence, Postemergence, scale 0 to 100, read-out: Plant response rating, Velvetleaf
  pest or weed control at 250 g/ha: 100%
[9]; pre-emergence, Preemergence, scale 0 to 100, 0 no effect, 100 complete control, read-out: Plant response rating, Velvetleaf
  pest or weed control at 62 g/ha: 80%
[9]; pre-emergence, Preemergence, scale 0 to 100 (0 no effect, 100 complete control), read-out: Plant response rating, Velvetleaf
  pest or weed control at 250 g/ha: 90%
[10]; post-emergence, Postemergence, scale 0 to 100 (0 no effect, 100 complete control), read-out: Wheat plant response rating
  plant injury at 62 g/ha: 40%
[10]; post-emergence, Postemergence, scale 0 to 100, read-out: Plant response rating, Wheat
  plant injury at 250 g/ha: 80%
[10]; [16]
  plant injury at 62 g/ha: 50%
  plant injury at 250 g/ha: 70%
[11]; 62 g ai/ha, scale 0 to 100 (0 no effect, 100 complete control), read-out: Blackgrass plant response rating
  pest or weed control at 62 g/ha: 70%
[11]; 250 g ai/ha, scale 0 to 100, read-out: Plant response rating, Blackgrass
  pest or weed control at 250 g/ha: 90%
Wild oat (Avena fatua); 62 g ai/ha, scale 0 to 100 (0 no effect, 100 complete control), read-out: Oat, Wild plant response rating
  pest or weed control at 62 g/ha: 50%
Wild oat (Avena fatua); 250 g ai/ha, scale 0 to 100, read-out: Plant response rating, Oat, Wild
  pest or weed control at 250 g/ha: 80%
[12]
  pest or weed control at 1000 g/ha: 90%
[13]
  pest or weed control at 1000 g/ha: 100%
Rice (Oryza sativa)
  plant injury at 1000 g/ha: 80%
[14]
  pest or weed control at 1000 g/ha: 80%
